Source: patent publication US7851510B2, “Gossypol derivatives, production method thereof and uses of same” (Centre National de la Recherche Scientifique (C.N.R.S.), priority 2004, dated 2010)
Read-outs that look alike come from different tables or passages of the source.

What was measured:
SAPK2b/p38β2 = SAPK2b/p38β2 (Homo sapiens, UniProt Q15759); experiment: Protein kinase activity in the presence of compound; type: biochemical; conditions: read-out: Residual activity SAPK2b/p38β2
Protocol: (§1) The action of the compound of formula (14) was tested on a selection of 29 different protein kinases. The activity of these enzymes was measured in the presence of 10 μM of compound, according to the general methodology described by Bain et al. (2003) Biochem. J. 371:199-204 and Davies et al. (2000) Biochem. J. 351:95-105.
(§2) Residual enzyme activity of protein kinases in the presence of inhibitor compounds at the concentration given (expressed as a percentage of the activity measured in the absence of inhibitors). The results obtained for gossypol and gossypolone are given by way of comparison.

MAPK2/ERK2 = MAPK2/ERK2 (Homo sapiens, UniProt P28482); experiment: as above; type: biochemical; conditions: read-out: Residual activity MAPK2/ERK2
Chain of MAPK2/ERK2 (P28482 whole entry): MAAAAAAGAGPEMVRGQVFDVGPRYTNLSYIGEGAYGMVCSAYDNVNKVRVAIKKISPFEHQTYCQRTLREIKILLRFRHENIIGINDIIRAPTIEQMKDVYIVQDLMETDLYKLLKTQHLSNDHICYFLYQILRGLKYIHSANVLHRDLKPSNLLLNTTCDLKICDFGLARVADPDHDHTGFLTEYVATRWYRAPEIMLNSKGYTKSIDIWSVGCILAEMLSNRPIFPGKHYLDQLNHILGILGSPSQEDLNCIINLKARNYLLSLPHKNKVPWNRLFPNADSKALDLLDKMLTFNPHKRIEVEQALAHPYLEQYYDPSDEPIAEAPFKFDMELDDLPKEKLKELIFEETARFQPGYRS
Protocol: as §1, §2

MAPKAP-K1a = MAPKAP-K1a (Homo sapiens, UniProt Q15418); experiment: as above; type: biochemical; conditions: read-out: Residual activity MAPKAP-K1a
Chain of MAPKAP-K1a (Q15418 whole entry, species assumed): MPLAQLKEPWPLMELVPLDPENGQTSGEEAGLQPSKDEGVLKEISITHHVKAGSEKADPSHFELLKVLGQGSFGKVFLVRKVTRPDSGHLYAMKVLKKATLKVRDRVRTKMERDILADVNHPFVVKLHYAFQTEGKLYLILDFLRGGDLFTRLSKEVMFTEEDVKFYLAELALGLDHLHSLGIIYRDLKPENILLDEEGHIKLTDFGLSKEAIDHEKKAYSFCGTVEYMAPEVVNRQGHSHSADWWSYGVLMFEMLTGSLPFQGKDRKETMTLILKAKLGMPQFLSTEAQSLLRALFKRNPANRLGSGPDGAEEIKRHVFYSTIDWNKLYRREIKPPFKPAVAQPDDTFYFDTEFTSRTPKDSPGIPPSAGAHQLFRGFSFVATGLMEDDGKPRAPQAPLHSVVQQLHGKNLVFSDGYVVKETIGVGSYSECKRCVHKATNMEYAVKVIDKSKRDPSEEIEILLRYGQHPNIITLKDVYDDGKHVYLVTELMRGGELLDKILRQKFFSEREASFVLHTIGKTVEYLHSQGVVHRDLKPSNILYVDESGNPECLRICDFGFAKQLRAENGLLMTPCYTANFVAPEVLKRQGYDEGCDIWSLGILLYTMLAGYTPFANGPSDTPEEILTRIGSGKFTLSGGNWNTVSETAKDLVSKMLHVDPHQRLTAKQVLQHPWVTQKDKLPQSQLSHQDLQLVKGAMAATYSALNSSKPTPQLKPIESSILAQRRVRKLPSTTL
Protocol: as §1, §2

NEK6 = NEK6 (Homo sapiens, UniProt Q9HC98); experiment: as above; type: biochemical; conditions: read-out: Residual activity NEK6
Chain of NEK6 (Q9HC98 whole entry, species assumed): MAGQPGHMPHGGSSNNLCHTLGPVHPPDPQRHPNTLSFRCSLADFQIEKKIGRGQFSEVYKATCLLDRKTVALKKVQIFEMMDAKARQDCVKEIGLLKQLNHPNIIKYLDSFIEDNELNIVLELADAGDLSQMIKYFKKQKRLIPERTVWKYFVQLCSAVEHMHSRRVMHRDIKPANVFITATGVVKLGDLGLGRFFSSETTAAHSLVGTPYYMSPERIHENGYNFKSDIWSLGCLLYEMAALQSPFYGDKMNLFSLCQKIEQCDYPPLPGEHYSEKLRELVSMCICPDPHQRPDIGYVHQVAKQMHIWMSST
Protocol: as §1, §2

Lck = Lck (Homo sapiens, UniProt P06239); experiment: as above; type: biochemical; conditions: read-out: Residual activity Lck
Chain of Lck (P06239 whole entry, species assumed): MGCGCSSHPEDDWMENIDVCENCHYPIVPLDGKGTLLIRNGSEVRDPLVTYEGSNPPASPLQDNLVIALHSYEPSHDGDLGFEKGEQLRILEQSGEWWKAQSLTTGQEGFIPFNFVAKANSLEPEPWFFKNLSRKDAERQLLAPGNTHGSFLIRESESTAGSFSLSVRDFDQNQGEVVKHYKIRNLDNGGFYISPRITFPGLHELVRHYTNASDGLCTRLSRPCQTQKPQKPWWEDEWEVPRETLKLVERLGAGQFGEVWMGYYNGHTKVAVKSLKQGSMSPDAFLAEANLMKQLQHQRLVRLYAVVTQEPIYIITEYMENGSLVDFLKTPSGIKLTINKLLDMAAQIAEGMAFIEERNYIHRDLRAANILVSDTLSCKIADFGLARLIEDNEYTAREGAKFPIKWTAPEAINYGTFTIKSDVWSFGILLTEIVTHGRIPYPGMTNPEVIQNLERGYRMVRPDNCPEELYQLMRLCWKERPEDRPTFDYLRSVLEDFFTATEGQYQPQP
Protocol: as §1, §2

DYRK1a = DYRK1a (Homo sapiens, UniProt Q13627); experiment: as above; type: biochemical; conditions: read-out: Residual activity DYRK1a
Protocol: as §1, §2

PRAK = biological target: T1, PRAK (Homo sapiens, UniProt Q8IW41); experiment: as above; type: biochemical; conditions: for remaining activity at 10 µM: read-out: Residual activity PRAK
T1 sequence (Q8IW41 1-473): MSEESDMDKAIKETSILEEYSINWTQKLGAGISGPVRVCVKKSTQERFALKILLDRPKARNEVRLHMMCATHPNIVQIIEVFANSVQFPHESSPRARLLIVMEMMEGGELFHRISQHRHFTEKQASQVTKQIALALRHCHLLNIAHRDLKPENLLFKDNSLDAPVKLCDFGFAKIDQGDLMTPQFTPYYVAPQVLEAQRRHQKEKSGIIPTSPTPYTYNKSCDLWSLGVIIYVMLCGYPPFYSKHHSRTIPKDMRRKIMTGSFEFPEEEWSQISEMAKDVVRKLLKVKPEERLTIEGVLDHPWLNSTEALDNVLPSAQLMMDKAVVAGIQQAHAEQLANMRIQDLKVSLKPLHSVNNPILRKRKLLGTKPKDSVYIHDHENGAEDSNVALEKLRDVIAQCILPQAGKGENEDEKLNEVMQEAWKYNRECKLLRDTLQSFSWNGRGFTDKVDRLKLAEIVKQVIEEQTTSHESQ
Protocol: as §1, §2

MSK1 = MSK1 (Homo sapiens, UniProt O75582); experiment: as above; type: biochemical; conditions: read-out: Residual activity MSK1
Chain of MSK1 (O75582 whole entry, species assumed): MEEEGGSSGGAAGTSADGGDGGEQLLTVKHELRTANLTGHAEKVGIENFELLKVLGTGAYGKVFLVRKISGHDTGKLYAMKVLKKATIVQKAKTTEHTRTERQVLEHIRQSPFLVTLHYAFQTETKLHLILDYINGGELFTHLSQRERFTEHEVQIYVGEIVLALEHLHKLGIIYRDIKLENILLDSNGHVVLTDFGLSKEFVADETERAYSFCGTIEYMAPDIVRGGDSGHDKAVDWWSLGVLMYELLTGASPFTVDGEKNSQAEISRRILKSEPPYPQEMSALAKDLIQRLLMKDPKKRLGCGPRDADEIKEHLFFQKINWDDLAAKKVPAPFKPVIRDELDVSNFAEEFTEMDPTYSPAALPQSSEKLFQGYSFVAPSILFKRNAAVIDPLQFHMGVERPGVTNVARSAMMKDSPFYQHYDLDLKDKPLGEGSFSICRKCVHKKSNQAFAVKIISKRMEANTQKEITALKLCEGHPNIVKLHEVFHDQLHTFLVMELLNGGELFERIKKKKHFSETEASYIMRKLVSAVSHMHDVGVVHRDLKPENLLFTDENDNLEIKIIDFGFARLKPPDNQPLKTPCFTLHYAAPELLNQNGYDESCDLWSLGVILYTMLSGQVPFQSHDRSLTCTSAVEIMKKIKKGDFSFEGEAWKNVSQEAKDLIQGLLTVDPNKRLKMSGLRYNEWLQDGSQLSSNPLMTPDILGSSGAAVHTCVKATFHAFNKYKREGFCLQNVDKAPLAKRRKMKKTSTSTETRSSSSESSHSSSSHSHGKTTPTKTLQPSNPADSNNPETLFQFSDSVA
Protocol: as §1, §2

MAPKAP-K2 = MAPKAP-K2 (Homo sapiens, UniProt P49137); experiment: as above; type: biochemical; conditions: read-out: Residual activity MAPKAP-K2
Chain of MAPKAP-K2 (P49137 whole entry, species assumed): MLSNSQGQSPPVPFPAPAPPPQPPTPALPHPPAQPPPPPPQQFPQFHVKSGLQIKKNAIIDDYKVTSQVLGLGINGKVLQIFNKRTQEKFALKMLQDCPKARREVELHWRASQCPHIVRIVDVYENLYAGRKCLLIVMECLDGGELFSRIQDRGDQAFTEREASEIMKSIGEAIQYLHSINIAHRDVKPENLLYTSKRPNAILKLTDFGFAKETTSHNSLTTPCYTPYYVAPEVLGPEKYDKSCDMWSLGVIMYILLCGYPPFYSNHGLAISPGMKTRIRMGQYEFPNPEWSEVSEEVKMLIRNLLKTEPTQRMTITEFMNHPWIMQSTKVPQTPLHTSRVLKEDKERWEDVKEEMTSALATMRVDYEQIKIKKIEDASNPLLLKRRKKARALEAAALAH
Protocol: as §1, §2

SAPK3/p38g = biological target: T2, SAPK3/p38g (Homo sapiens, UniProt P53778); experiment: as above; type: biochemical; conditions: read-out: Residual activity SAPK3/p38g
T2 sequence (P53778 1-367): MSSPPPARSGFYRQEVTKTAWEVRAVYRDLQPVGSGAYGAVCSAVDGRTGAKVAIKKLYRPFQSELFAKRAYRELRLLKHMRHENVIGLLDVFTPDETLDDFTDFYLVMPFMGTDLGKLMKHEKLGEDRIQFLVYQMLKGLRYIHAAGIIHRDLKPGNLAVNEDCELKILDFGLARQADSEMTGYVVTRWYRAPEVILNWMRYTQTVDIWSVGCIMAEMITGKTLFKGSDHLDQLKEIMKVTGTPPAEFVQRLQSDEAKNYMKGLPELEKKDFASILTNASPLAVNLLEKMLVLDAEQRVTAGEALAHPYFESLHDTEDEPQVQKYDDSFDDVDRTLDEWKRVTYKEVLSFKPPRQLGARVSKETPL
Protocol: as §1, §2

CHK1 = biological target: T3, CHK1 (Homo sapiens, UniProt O14757); experiment: as above; type: biochemical; conditions: read-out: Residual activity CHK1
T3 sequence (O14757 1-476): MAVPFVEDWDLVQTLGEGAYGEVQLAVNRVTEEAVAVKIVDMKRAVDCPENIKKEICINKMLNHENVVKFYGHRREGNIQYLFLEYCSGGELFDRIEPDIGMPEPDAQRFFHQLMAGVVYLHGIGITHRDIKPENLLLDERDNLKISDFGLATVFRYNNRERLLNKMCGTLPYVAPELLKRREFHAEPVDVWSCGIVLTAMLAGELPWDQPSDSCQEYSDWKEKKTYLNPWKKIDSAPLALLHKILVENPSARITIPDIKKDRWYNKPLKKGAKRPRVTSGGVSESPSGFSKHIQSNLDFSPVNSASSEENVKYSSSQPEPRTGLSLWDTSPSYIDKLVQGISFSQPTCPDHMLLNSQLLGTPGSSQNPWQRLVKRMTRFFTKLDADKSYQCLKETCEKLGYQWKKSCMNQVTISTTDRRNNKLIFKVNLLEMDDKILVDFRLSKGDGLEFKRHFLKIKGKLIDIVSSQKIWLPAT
Protocol: as §1, §2

CSK = CSK (Homo sapiens, UniProt P41240); experiment: as above; type: biochemical; conditions: read-out: Residual activity CSK
Chain of CSK (P41240 whole entry, species assumed): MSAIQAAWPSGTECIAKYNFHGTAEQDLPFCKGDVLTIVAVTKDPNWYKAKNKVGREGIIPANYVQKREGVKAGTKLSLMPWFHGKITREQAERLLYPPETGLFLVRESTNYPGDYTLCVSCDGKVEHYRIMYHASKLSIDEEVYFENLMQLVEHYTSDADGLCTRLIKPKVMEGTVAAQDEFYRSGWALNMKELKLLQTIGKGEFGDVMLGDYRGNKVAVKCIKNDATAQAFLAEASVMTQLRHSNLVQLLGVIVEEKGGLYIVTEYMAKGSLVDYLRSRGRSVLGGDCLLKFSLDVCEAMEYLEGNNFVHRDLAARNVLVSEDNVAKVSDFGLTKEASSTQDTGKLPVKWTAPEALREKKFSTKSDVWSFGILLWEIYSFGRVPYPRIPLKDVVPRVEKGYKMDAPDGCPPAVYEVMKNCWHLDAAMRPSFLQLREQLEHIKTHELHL
Protocol: as §1, §2

KB tumour cell line = experiment: Cytotoxicity vis-à-vis the KB tumour cell line; type: cell-based; conditions: Homo sapiens
Protocol: The cytotoxicity of the compound vis-à-vis the KB tumour cell line was measured as is described in Dao et al. (2003) Bioorg. Med. Chem. 11:2001-2006.

[1] = 10 μM compound, percentage of the activity measured in the absence of inhibitors

Chain of SAPK2b/p38β2 (Q15759 whole entry): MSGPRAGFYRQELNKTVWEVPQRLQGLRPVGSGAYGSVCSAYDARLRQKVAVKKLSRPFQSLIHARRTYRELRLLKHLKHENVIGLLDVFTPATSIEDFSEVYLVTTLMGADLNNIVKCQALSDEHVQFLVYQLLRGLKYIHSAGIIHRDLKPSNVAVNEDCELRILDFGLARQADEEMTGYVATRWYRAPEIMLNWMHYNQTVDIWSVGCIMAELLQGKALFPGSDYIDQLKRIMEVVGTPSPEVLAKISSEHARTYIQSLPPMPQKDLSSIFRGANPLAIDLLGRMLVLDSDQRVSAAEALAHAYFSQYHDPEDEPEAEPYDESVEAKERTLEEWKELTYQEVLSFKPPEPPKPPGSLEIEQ

SMILES	remaining activity at 10 µM (SAPK2b/p38β2)	remaining activity at 10 µM (MAPK2/ERK2)	remaining activity at 10 µM (MAPKAP-K1a)	remaining activity at 10 µM (NEK6)	remaining activity at 10 µM (Lck)	remaining activity at 10 µM (DYRK1a)	Reduction of the activity of PRAK (PRAK; 10 μM compound)	remaining activity at 10 µM (PRAK)	remaining activity at 10 µM (MSK1)	remaining activity at 10 µM (MAPKAP-K2)	remaining activity at 10 µM (SAPK3/p38g)	remaining activity at 10 µM (CHK1)	remaining activity at 10 µM (CSK)	also measured
CC1=C(C2=C(C)C(=O)c3c(c(O)c(O)c(O)c3C(C)C)C2=O)C(=O)c2c(O)c(O)c(O)c(C(C)C)c2C1=O [Compound (4), 6,7,8,6′,7′,8′-hexahydroxy-5,5′-diisopropyl-3,3′-dimethyl-[2.2′]binaphthalenyl-1,4,1′,4′-tetraone]	124%	52%	58%	86%	71%	25%	91%	9%	69%	28%	89%	127%	93%	IC50 (KB tumour cell line): 1 µM
CC1=C(C2=C(C)C(=O)c3c(c(CSCCO)c(O)c(O)c3C(C)C)C2=O)C(=O)c2c(CSCCO)c(O)c(O)c(C(C)C)c2C1=O [Compound (14), 6,7,6′,7′-tetrahydroxy-8,8′-bis-(2-hydroxy-ethylsulphanylmethyl)-5,5′-diisopropyl-3,3′-dimethyl-[2,2′]binaphthalenyl-1,4,1′,4′-tetraone]							91%							remaining activity at 10 µM (SAPK2b/p38β2; [1]): 113%; remaining activity at 10 µM (MAPK2/ERK2; [1]): 58%; remaining activity at 10 µM (MAPKAP-K1a; [1]): 60%; remaining activity at 10 µM (NEK6; [1]): 81%; remaining activity at 10 µM (Lck; [1]): 54%; remaining activity at 10 µM (DYRK1a; [1]): 16%; remaining activity at 10 µM (PRAK; [1]): 9%; remaining activity at 10 µM (MSK1; [1]): 83%; remaining activity at 10 µM (MAPKAP-K2; [1]): 36%; remaining activity at 10 µM (SAPK3/p38g; [1]): 76%; remaining activity at 10 µM (CHK1; [1]): 47%; remaining activity at 10 µM (CSK; [1]): 60%
Cc1cc2c(C(C)C)c(O)c(O)c(C=O)c2c(O)c1-c1c(C)cc2c(C(C)C)c(O)c(O)c(C=O)c2c1O [Gossypol, gossypol]	125%	65%	77%	92%	76%	21%		48%	79%	56%	108%	9%	103%	
CC1=C(C2=C(C)C(=O)c3c(c(C=O)c(O)c(O)c3C(C)C)C2=O)C(=O)c2c(C=O)c(O)c(O)c(C(C)C)c2C1=O [Gossypolone, gossypolone, reference compound]	102%	46%	55%	89%	60%	27%		9%	85%	28%	83%	24%	64%	
